Test results reported in ChEMBL document CHEMBL1156023, “Grassystatins A-C from marine cyanobacteria, potent cathepsin E inhibitors that reduce antigen presentation” (J Med Chem, 2009).
Square brackets hold non-standard residues; d marks the D form. Peptide text beside a SMILES is read from it. * marks the point of attachment. Sta = CC(C)C[C@H](N)[C@@H](O)CC(=O)O; NMe2Val = CC(C)[C@@H](C(=O)*)N(C)C; dNMeF = CN[C@H](Cc1ccccc1)C(=O)O; dHiv = CC(C)[C@@H](O)C(=O)O; Hiv = CC(C)[C@H](O)C(=O)O

Legend:
Caspase-4 (Homo sapiens) = Caspase-4 (Homo sapiens) (UniProt P49662); test: Inhibition of caspase 4 assessed as residual activity at 10 uM after 10 to 15 mins by fluorescence assay relative to control
Caspase-3 (Homo sapiens) = Caspase-3 (Homo sapiens) (UniProt P42574); test: Inhibition of caspase 3 assessed as residual activity at 10 uM after 10 to 15 mins by fluorescence assay relative to control
Sequence of Caspase-3 (Homo sapiens) (P42574 29-175 limits assumed): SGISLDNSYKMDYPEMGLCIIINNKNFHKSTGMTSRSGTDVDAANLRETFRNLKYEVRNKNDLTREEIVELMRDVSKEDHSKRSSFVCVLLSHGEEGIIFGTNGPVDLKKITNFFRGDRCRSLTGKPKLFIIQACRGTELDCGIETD
Sequence of Caspase-3 (Homo sapiens) (P42574 176-277 limits assumed): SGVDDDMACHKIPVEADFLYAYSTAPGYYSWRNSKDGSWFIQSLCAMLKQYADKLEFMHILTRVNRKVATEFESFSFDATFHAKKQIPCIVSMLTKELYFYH

[1] = biological target: Tryptase beta-1 (Homo sapiens) (UniProt Q15661); test: Inhibition of tryptase beta2 assessed as residual activity at 10 uM after 10 to 15 mins by fluorescence assay relative to control
[2] = biological target: Pro-cathepsin H (Homo sapiens) (UniProt P09668); test: Inhibition of cathepsin H assessed as residual activity at 10 uM after 10 to 15 mins by fluorescence assay relative to control
Stromelysin-1 [3] = biological target: T1, Stromelysin-1 (Homo sapiens, UniProt P08254); test: Inhibition of MMP3 after 10 to 15 mins by fluorescence assay
[4] = biological target: Chymotrypsin-like elastase family member 1 (Sus scrofa) (UniProt P00772); test: Inhibition of porcine pancreatic elastase assessed as residual activity at 10 uM after 10 to 15 mins by fluorescence assay relative to control
Caspase-10 = Caspase-10 (Homo sapiens, UniProt Q92851); test: Inhibition of caspase 10 after 10 to 15 mins by fluorescence assay
[5] = biological target: T2, Vitamin K-dependent protein C (Homo sapiens, UniProt P04070); test: Inhibition of activated protein C after 10 to 15 mins by fluorescence assay in presence of 50% […]
T2 sequence (P04070 43-197 limits assumed): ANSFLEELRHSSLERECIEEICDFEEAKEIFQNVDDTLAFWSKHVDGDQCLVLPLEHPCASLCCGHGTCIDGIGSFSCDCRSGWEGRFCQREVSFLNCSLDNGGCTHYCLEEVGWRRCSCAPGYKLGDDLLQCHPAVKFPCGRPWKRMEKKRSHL
T2 sequence (P04070 212-461 limits assumed): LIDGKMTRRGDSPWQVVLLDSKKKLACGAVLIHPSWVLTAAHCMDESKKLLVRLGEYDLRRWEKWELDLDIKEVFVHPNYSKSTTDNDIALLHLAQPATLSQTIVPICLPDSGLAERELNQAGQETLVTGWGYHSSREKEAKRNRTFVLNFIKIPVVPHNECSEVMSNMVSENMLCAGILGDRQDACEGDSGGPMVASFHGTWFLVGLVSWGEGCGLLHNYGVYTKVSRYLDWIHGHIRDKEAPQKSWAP

[6] = biological target: Beta-secretase 1 (Homo sapiens) (UniProt P56817); test: Inhibition of BACE1 assessed as residual activity at 10 uM after 10 to 15 mins by fluorescence assay relative to control
[7] = biological target: Plasma kallikrein (Homo sapiens) (UniProt P03952); test: Inhibition of plasma kallikrein assessed as residual activity at 10 uM after 10 to 15 mins by fluorescence assay relative to control; assay type: cell-free
Stromelysin-1 [8] = biological target: T1, Stromelysin-1; test: Inhibition of MMP3 assessed as residual activity at 10 uM after 10 to 15 mins by fluorescence assay relative to control
Caspase-5 = Caspase-5 (Homo sapiens, UniProt P51878); test: Inhibition of caspase 5 after 10 to 15 mins by fluorescence assay
Caspase-6 = Caspase-6 (Homo sapiens, UniProt P55212); test: Inhibition of caspase 6 after 10 to 15 mins by fluorescence assay
[9] = biological target: Caspase-10 (Homo sapiens) (UniProt Q92851); test: Inhibition of caspase 10 assessed as residual activity at 10 uM after 10 to 15 mins by fluorescence assay relative to control
Caspase-4 = Caspase-4 (Homo sapiens, UniProt P49662); test: Inhibition of caspase 4 after 10 to 15 mins by fluorescence assay
[10] = biological target: Tryptase gamma (Homo sapiens) (UniProt Q9NRR2); test: Inhibition of human lung tryptase gamma1 assessed as residual activity at 10 uM after 10 to 15 mins by fluorescence assay relative to control
Renin (Homo sapiens) = Renin (Homo sapiens) (UniProt P00797); test: Inhibition of human renin assessed as residual activity at 10 uM after 10 to 15 mins by fluorescence assay relative to control
Sequence of Renin (Homo sapiens) (P00797 whole entry): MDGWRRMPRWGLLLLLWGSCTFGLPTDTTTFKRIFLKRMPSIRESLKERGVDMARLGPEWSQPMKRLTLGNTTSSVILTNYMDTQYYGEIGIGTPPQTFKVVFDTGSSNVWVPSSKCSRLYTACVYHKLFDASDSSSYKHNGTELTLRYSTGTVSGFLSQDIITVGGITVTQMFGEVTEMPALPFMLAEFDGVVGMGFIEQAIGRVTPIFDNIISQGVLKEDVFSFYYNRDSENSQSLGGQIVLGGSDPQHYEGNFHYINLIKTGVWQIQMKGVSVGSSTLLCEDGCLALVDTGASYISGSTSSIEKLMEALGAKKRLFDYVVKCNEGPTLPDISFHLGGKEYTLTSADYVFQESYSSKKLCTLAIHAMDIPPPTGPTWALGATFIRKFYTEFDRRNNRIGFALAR

Papain (Carica papaya) = Papain (Carica papaya) (UniProt P00784); test: Inhibition of papaya papain assessed as residual activity at 10 uM after 10 to 15 mins by fluorescence assay relative to control
Sequence of Papain (Carica papaya) (P00784 whole entry): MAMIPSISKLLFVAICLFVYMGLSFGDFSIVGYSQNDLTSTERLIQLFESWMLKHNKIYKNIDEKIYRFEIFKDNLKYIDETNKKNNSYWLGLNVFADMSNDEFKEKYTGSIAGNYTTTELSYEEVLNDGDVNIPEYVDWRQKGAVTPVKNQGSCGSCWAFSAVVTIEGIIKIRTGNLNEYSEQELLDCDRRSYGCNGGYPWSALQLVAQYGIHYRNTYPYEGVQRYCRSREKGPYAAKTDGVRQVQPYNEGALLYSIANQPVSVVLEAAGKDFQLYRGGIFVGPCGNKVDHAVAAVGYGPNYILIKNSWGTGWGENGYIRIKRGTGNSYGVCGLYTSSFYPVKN

Caspase-7 (Homo sapiens) = Caspase-7 (Homo sapiens) (UniProt P55210); test: Inhibition of caspase 7 assessed as residual activity at 10 uM after 10 to 15 mins by fluorescence assay relative to control
Sequence of Caspase-7 (Homo sapiens) (P55210 24-198 limits assumed): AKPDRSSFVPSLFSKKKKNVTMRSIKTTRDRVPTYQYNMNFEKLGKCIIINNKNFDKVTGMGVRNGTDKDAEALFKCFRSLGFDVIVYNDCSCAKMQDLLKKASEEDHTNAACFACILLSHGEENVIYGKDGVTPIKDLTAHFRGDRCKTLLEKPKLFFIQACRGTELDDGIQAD
Sequence of Caspase-7 (Homo sapiens) (P55210 207-303 limits assumed): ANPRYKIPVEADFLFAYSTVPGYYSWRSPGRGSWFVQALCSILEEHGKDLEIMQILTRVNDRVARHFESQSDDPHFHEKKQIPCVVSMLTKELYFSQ

[11] = biological target: T3, Matrix metalloproteinase-14 (Homo sapiens, UniProt P50281); test: Inhibition of MMP14 catalytic domain after 10 to 15 mins by fluorescence assay
[12] = biological target: T3, Matrix metalloproteinase-14; test: Inhibition of MMP14 assessed as residual activity at 10 uM after 10 to 15 mins by fluorescence assay relative to control
Caspase-9 (Homo sapiens) = Caspase-9 (Homo sapiens) (UniProt P55211); test: Inhibition of caspase 9 assessed as residual activity at 10 uM after 10 to 15 mins by fluorescence assay relative to control
Sequence of Caspase-9 (Homo sapiens) (P55211 1-315 limits assumed): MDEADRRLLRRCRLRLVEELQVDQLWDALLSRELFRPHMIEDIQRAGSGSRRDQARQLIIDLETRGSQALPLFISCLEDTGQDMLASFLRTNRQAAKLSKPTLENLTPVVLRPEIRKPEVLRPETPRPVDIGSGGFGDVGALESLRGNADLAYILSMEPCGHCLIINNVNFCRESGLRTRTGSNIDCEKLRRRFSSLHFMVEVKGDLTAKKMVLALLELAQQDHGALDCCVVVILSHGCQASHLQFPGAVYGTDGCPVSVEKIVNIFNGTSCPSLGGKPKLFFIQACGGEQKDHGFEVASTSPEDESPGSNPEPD
Sequence of Caspase-9 (Homo sapiens) (P55211 331-416 limits assumed): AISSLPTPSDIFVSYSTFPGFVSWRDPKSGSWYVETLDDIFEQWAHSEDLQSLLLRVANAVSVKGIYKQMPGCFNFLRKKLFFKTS

Stromelysin-2 = Stromelysin-2 (Homo sapiens, UniProt P09238); test: Inhibition of MMP10 assessed as residual activity at 10 uM after 10 to 15 mins by fluorescence assay relative to control
Caspase-9 = Caspase-9 (Homo sapiens, UniProt P55211); test: Inhibition of caspase 9 after 10 to 15 mins by fluorescence assay
Sequence of Caspase-9 (P55211 1-315 limits assumed): as the sequence (P55211 1-315 limits assumed) above
Sequence of Caspase-9 (P55211 331-416 limits assumed): as the sequence (P55211 331-416 limits assumed) above

[13] = biological target: Plasminogen (Homo sapiens) (UniProt P00747); test: Inhibition of human plasmin assessed as residual activity at 10 uM after 10 to 15 mins by fluorescence assay relative to control
[14] = biological target: 72 kDa type IV collagenase (Homo sapiens, UniProt P08253); test: Inhibition of MMP2 after 10 to 15 mins by fluorescence assay
Collagenase 3 = Collagenase 3 (Homo sapiens, UniProt P45452); test: Inhibition of MMP13 assessed as residual activity at 10 uM after 10 to 15 mins by fluorescence assay relative to control
Caspase-5 (Homo sapiens) = Caspase-5 (Homo sapiens) (UniProt P51878); test: Inhibition of caspase 5 assessed as residual activity at 10 uM after 10 to 15 mins by fluorescence assay relative to control
[15] = biological target: Disintegrin and metalloproteinase domain-containing protein 17 (Homo sapiens, UniProt P78536); conditions: 5.08 to 100000 nM
Sequence of Disintegrin and metalloproteinase domain-containing protein 17 (P78536 whole entry, the tested form may be a part): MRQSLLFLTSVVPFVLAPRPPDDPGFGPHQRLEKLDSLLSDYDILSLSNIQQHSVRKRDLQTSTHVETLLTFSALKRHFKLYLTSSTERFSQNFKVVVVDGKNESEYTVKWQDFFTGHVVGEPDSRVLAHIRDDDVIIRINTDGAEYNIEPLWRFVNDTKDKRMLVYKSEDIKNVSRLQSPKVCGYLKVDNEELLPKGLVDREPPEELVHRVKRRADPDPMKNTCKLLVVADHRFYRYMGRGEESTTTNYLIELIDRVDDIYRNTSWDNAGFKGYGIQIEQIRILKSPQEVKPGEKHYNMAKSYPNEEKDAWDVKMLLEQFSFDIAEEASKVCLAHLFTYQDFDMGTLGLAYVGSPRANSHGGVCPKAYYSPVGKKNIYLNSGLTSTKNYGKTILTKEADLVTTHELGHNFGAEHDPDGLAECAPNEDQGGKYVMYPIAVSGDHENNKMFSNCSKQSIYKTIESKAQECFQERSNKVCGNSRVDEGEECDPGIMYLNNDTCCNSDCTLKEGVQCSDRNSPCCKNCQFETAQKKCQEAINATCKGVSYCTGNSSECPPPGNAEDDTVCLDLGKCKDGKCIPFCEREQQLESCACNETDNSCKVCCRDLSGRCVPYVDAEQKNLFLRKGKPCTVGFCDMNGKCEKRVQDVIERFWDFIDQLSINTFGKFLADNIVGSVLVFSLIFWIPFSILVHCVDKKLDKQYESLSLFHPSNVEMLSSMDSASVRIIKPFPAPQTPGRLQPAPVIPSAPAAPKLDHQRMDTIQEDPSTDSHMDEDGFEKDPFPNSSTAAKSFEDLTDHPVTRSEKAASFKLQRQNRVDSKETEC

[16] = biological target: T2, Vitamin K-dependent protein C; test: Inhibition of activated protein C assessed as residual activity at 10 uM after 10 to 15 mins by fluorescence assay in presence of 50% […] relative to control
[17] = biological target: Disintegrin and metalloproteinase domain-containing protein 10 (Homo sapiens) (UniProt O14672); test: Inhibition of ADAM10 assessed as residual activity at 10 uM after 10 to 15 mins by fluorescence assay relative to control
Sequence of Disintegrin and metalloproteinase domain-containing protein 10 (Homo sapiens) (O14672 whole entry, the tested form may be a part): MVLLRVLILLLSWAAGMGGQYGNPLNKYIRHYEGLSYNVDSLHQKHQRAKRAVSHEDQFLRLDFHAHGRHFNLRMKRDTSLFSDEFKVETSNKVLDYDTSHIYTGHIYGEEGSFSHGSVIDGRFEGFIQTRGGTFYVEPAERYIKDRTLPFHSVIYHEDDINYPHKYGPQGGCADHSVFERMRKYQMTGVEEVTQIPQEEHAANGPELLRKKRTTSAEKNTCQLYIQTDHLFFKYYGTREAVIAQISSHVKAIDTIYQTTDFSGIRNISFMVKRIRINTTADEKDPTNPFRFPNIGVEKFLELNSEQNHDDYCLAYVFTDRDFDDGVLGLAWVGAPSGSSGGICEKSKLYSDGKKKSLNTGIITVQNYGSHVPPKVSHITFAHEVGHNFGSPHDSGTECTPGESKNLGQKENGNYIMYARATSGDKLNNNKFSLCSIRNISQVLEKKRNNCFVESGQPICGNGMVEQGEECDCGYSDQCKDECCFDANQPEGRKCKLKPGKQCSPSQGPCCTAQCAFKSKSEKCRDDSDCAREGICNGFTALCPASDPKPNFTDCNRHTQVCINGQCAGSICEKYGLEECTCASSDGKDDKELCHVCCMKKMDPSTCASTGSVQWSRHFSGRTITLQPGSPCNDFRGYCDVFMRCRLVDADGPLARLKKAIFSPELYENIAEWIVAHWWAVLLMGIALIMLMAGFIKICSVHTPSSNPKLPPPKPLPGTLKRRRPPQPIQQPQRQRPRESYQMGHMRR

[18] = biological target: Dipeptidyl peptidase 4 (Homo sapiens) (UniProt P27487); test: Inhibition of DPP4 assessed as residual activity at 10 uM after 10 to 15 mins by fluorescence assay relative to control
Sequence of Dipeptidyl peptidase 4 (Homo sapiens) (P27487 whole entry, looked up): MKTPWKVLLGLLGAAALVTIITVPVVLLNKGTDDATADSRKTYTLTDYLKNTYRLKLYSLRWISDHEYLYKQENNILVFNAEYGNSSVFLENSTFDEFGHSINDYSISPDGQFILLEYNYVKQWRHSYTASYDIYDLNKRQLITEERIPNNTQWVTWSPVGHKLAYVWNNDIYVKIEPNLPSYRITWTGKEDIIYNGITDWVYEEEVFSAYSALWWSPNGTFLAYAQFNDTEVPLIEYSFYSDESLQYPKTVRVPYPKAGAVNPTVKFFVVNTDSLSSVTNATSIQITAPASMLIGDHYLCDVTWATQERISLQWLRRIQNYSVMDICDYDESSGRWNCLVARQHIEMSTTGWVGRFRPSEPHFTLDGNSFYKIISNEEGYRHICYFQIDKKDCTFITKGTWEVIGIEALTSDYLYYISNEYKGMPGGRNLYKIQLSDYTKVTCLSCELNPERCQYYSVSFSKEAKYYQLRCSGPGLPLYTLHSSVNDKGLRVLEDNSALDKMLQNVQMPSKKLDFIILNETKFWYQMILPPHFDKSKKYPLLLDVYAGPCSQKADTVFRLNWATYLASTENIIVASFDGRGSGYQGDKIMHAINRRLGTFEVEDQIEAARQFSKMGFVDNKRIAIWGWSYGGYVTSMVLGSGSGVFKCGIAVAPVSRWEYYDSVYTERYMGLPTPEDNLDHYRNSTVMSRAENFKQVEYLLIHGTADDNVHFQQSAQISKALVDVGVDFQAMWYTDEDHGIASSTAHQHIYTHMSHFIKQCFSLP

## COC(=O)[C@@H]1CCCN1C(=O)[C@@H](Cc1ccccc1)N(C)C(=O)[C@H](C)NC(=O)[C@@H](NC(=O)C[C@H](O)[C@H](CC(C)C)NC(=O)[C@H](CC(N)=O)NC(=O)[C@H](CC(C)C)NC(=O)[C@H](OC(=O)[C@@H](OC(=O)[C@H](C(C)C)N(C)C)C(C)C)C(C)C)[C@@H](C)O [GRASSYSTATIN A] (NMe2Val-[Hiv][dHiv]LN[Sta]TA[dNMeF]P-OMe)
Caspase-4 (Homo sapiens)
  Activity: 64%
Caspase-3 (Homo sapiens)
  Activity: 63%
[1]
  Activity: 74%
[2]
  Activity: 80%
Stromelysin-1 [3]
  IC50: 5 µM
[4]
  Activity: 66%
Caspase-10
  IC50: 5 µM
[5]
  IC50: 50 µM
[6]
  Activity: 100%
[7]
  Activity: 78%
Stromelysin-1 [8]
  Activity: 86%
Caspase-5
  IC50: 5 µM
Caspase-6
  IC50: 5 µM
[9]
  Activity: 102%
Caspase-4
  IC50: 5 µM
[10]
  Activity: 80%
Renin (Homo sapiens)
  Activity: 96%
Papain (Carica papaya)
  Activity: 101%
Caspase-7 (Homo sapiens)
  Activity: 62%
[11]
  IC50: 5 µM
[12]
  Activity: 76%
Caspase-9 (Homo sapiens)
  Activity: 78%
Stromelysin-2
  Activity: 76%
Caspase-9
  IC50: 5 µM
[13]
  Activity: 86%
[14]
  IC50: 5 µM
Collagenase 3
  Activity: 75%
Caspase-5 (Homo sapiens)
  Activity: 58%
[15]
  inhibition: tde
[16]
  Activity: 130%
[17]
  Activity: 0%
[18]
  Activity: 71%
